# Measured values reported in patent US7923004B2 (priority 2006, dated 2011).
# pEC50: −log10 of the molar value.
# Experiments:
# [1] = tested on: replicon resistant to 10 μM Compound #64 vs wild type Huh-7 Luc-ubi-neo/ET replicon; assay: Cross resistance of Compound #64 resistant replicon; format: cell-based, HCV genotype 1b; details: for EC50 Resistant Replicon/EC50 Wild Type Replicon: replicon resistant to 10 μM Compound #64 vs wild type Huh-7 Luc-ubi-neo/ET replicon
# [2] = tested on: HCV genotype 1b replicon (Huh-Luc-Neo cells); assay: HCV Replicon Luciferase Assay; format: cell-based; details: Hepatitis C virus, Huh-Luc-Neo cells, genotype 1b, 72 h, read-out: HCV-1b Replicon Inhibition*, Luciferase (EC50)
# [3] = tested on: HCV genotype 1b replicon (Huh-Luc-Neo cells); assay: HCV Replicon RNA (Taqman) Assay, genotype 1b; format: cell-based; details: Hepatitis C virus, Huh-Luc-Neo cells, genotype 1b, HCV RNA, 72 h, read-out: HCV-1b Replicon Inhibition*, Taqman (EC50)
# [4] = Cell Titer-Glo Cell Viability Assay, genotype 1b cells; format: cell-based; details: human, Huh-Luc-Neo (HCV genotype 1b replicon) cells, HCV genotype 1b assays, read-out: Cytotoxicity* (CC50)
# Method: Cell Seeding and Compound Treatment: Huh-Luc-Neo (Genotype 1b) or En5-3/Htat2ANeo (Genotype 1a) cells are seeded at 5000-7000/well in an opaque-walled 96 plate with Growth Medium (DMEM phenol red free+PS+2 mM glutamine; 100 ul/well). The compounds to be tested for inhibition of cell viability are added to the experimental wells so as to generate a dose response curve (8-9 concentrations, 10 μl/well at 10× assay concentration) and the cells are then incubated (5% CO2, 37° C.) for 72 h.
# Reagent Preparation and Assay: After completion of the incubation period the cell viability measurements are made using the Cell Titre Glo Assay (Promega) according to the manufacturer's recommended protocol. Briefly, the CellTiter-Glo Buffer is thawed and equilibrated to room temperature prior to use. The lyophilized CellTiter-Glo Substrate is also equilibrated to room temperature prior to use. 10 ml of CellTiter-Glo Buffer is then transferred to 1 vial of CellTiter-Glo Substrate and mixed gently with a Vortex. 100 μl of CellTiter-Glo Assay reagent (CellTiter-Glo Buffer+CellTiter-Glo Substrate Mixture) is added to each well. The well contents are mixed for 5 min. on an orbital shaker at room temperature to induce cell lysis and the luminescence is then measured using a luminometer.
# [5] = tested on: Compound #64 resistant HCV 1b replicon cell lines vs wild type Huh-Luc-Neo replicon; assay: EC50 determination (HCV RNA, quantitative PCR) in resistant vs wild type replicon clones; format: cell-based, HCV genotype 1b
# Method: An HCV Replicon cell line (luc-neo/ET) and assay (Lohman et al, Science 1999, 285, 110) was used in the present invention. Specifically the HCV 1b Replicon cell line Huh-Luc-Neo was subjected to resistance selection by growth in culture in the presence of Compound #64 (Table 1) according to methods described by Mo et al., Antimicro. Agents Chemotherapy, 49, 4305-4314, 2005. Huh-Luc-Neo cells were initially subjected to selection with 0.5 μM Compound #64 (Table 1) and selection pressure was increased gradually up to 2 μM COMPOUND #64 (TABLE 1) over a period of 7 to 9 weeks and 5 cell lines derived from individual colonies were isolated and expanded. A specific clone resistant to 2 μM Compound #64 (Table 1) (Clone Comp.64-10R4) was the subjected to further selection pressure at increasing concentrations of Compound #64 (Table 1) and a replicon resistant to 10 μM Compound #64 (Table 1) was isolated (Clone Comp.64-50R4). The wild type Huh-Luc-Neo replicon cell line was cultured in parallel with the selections and characterized in a similar fashion to the resistant clones.
# (§1) EC50 determinations were performed with Compound #64 (Table 1) vs. the wild type Huh-Luc-Neo replicon cell line and the 5 resistant replicon cell lines. Resistant and wild type replicons were plated in 96 well plates (5000-7000 cells/well) and treated with compound at varying concentrations (Compound #64 (Table 1)) for 72 hours. Cells were then lysed and RNA was isolated (Qiagen RNA Easy 96 kit) according to the manufacturer's recommendations. HCV RNA levels were then measured and EC50 values were determined by cDNA synthesis and quantitative PCR using HCV specific primers and GAPDH primers as controls (Example 55, Lohman et al, Science 1999, 285, 110). The effect of the compounds on inhibition of cell viability was performed on cells treated in parallel with using the Cell Titre Glo Assay Kit (Promega) according to the manufacturer's recommendations (Example 56). CC50s for the compound vs. the wild type and resistant replicons were determined to be >50 μM.
# [6] = Cell Titre Glo cell viability on wild type and resistant replicons; format: cell-based; details: human
# Method: as §1
# [7] = tested on: HCV Genotype 1b luc-neo/ET replicon with Y2065H mutation in NS5A; assay: Luciferase EC50 in Huh7-Lunet cells with luc-neo/ET/Y2065H mutant vs parental luc-neo/ET replicon; format: cell-based; details: transient replicons, 72 h
# Method: Resistance of Compound #64 (Table 1) and related pyrazoles was then determined by treating Huh7-Lunet cells (Koutsoudakis et al, J. Virol. 81(2):588-98, 2007) transiently electroporated with RNAs transcribed from either the luc-neo/ET/Y2065H mutant and the parental luc-neo/ET replicons (Blight et al, J. Virol. 77(5):3181-90, 2003). Huh7-Lunet expressing the luc-neo/ET/Y2065H mutant and the parental luc-neo/ET replicons were treated with selected compounds for 72 hours. EC50 and CC50 values were determined as described in the HCV Replicon Luciferase Assay and CellTiter-Glo Cell Viability Assay protocols. […] CC50s for the compound vs. the luc-neo/ETIY2065H mutant and parental luc-neo/ET replicons were determined to be>33 μM.
Structure (SMILES),EC50 Resistant Replicon/EC50 Wild Type Replicon [1],pEC50 [2],pEC50 [3],CC50 at 72 h [4] [nM],EC50 Luc-neo-ET-Y2065H/EC50 Luc-neo-ET [7],other results
Cc1ccc(O)c(-c2nn(C)cc2C#Cc2ccc(NC(=O)[C@@H]3COCCN3C(=O)[C@H](NC(=O)OC(C)(C)C)c3ccccc3)cc2)c1,7.125,,,,,cross resistance in Compound #64 resistant replicon ([1]; replicon resistant to 10 μM Compound #64): cross resistant
Cc1ccc(O)c(-c2nn(C)cc2C#Cc2ccc(NC(=O)[C@H]3CCCCN3C(=O)C(NC(=O)OC(C)(C)C)c3ccccc3)cc2)c1 (stereo partly drawn) [64 (Table 1)],,> 6.00,> 6.00,> 100000,>65,"EC50 shift, resistant replicon vs wild type replicon ([5]; replicon resistant to 10 μM Compound #64, second NS5A mutation Y2065H): > 75 fold; EC50 Resistant Replicon/EC50 Wild Type Replicon ([5]; resistant clone Comp. 64-10R3, resistant conc. 2 μM): 1.5; EC50 Resistant Replicon/EC50 Wild Type Replicon ([5]; resistant clone Comp. 64-10R4, resistant conc. 2 μM): 3.48; EC50 Resistant Replicon/EC50 Wild Type Replicon ([5]; resistant clone Comp. 64-10R5, resistant conc. 2 μM): 2.92; EC50 Resistant Replicon/EC50 Wild Type Replicon ([5]; resistant clone Comp. 64-10R6, resistant conc. 2 μM): 2.18; EC50 Resistant Replicon/EC50 Wild Type Replicon ([5]; resistant clone Comp. 64-10R8, resistant conc. 2 μM): 3; EC50 Resistant Replicon/EC50 Wild Type Replicon ([5]; resistant clone Comp. 64-50R4, resistant conc. 10 μM): >75; CC50 at 72 h [6]: > 50000 nM"
"COc1ccc2c(O[C@@H]3C[C@H]4C(=O)N[C@]5(C(=O)O)C[C@H]5/C=C\CCCCC[C@H](NC(=O)OC5CCCC5)C(=O)N4C3)cc(-c3csc(NC(C)C)n3)nc2c1 [BILN 2061, reference compound]",0.656,,,,,
Cc1ccc(O)c(-c2nn(C)cc2C#Cc2ccc(NC(=O)[C@@H]3COCCN3C(=O)[C@H](NC(=O)OC(C)(C)C)c3ccccc3)cc2)c1 [Compound 23A],,,,> 100000,6,pEC50 ([2]; GETYPE1B): > 6.00; pEC50 ([3]; GETYPE1B): > 6.00
Cn1cc(C#Cc2ccc(NC(=O)[C@@H]3COCCN3C(=O)[C@H](NC(=O)C3CC3)c3ccccc3)cc2)c(-c2cc(Cl)ccc2O)n1 [Compound 52],,> 6.00,> 6.00,10000 to 100000,79,
Cn1cc(C#Cc2ccc(NC(=O)[C@@H]3COCCN3C(=O)[C@H](NC(=O)NC(C)(C)C)c3ccccc3)cc2)c(-c2cc(Cl)ccc2O)n1 [Compound 53],,> 6.00,> 6.00,10000 to 100000,71,
